Measurements taken from US10196378B2, “Inhibitors of BCR-ABL mutants and use thereof” (THE REGENTS OF THE UNIVERSITY OF MICHIGAN, priority 2016, dated 2019).

Experiments:
[1] = system: parental IL-3 dependent Ba/F3 cells; experiment: cells; conditions: Mus musculus, BaF3, read-out: GI50, Ba/F3 parental
MAP4K5 = MAP4K5 (Homo sapiens (Human), UniProt Q9Y4K4); experiment: NanoSyn single-concentration kinase inhibition; assay type: biochemical; conditions: read-out: % inhibition at 100 nM, MAP4K5
FLT3 = FLT3 (Homo sapiens (Human), UniProt P36888); experiment: NanoSyn single-concentration kinase inhibition; assay type: biochemical; conditions: read-out: % inhibition at 100 nM, FLT3
VEGFR2 (KDR) [2] = target: T1, VEGFR2 (KDR) (Homo sapiens (Human), UniProt P35968)
T1 sequence (P35968 20-1356, species assumed): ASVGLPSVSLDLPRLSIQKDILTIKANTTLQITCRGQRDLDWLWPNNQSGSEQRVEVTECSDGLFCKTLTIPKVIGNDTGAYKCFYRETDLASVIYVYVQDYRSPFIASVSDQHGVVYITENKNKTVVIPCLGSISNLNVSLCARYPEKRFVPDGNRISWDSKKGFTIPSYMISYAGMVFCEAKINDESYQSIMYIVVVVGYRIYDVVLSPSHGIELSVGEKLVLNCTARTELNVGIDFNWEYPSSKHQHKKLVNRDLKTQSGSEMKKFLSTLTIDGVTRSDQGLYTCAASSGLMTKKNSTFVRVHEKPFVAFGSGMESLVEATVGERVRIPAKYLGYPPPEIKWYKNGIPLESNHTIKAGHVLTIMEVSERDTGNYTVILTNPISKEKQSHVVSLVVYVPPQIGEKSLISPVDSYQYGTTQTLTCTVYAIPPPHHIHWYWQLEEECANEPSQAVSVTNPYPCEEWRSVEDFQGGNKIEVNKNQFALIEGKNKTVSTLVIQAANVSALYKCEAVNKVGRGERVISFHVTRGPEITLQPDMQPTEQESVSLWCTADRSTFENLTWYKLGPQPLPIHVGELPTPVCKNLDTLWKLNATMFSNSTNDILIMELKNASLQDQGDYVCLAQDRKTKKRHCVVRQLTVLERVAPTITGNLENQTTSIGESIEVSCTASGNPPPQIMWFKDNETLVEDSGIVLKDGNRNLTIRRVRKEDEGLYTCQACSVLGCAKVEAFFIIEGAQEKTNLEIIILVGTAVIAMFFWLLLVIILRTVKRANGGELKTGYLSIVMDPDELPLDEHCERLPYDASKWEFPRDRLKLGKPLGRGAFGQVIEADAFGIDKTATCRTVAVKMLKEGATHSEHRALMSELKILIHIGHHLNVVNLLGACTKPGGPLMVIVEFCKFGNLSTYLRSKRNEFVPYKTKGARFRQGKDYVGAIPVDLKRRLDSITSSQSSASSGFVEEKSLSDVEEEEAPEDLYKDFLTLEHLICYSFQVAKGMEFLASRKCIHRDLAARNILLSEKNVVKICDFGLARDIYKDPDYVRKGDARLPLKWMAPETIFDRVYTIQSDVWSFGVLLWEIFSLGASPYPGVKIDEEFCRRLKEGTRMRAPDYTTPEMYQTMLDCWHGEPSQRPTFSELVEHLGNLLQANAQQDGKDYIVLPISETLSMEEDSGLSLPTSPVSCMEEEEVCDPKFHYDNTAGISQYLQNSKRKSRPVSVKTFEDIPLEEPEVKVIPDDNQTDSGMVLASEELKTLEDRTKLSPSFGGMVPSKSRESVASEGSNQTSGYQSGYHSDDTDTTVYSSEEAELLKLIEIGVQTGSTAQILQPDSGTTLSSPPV

BV-173R = experiment: Growth inhibition (GI50) in BV-173R CML cells; assay type: cell-based; conditions: read-out: GI50, BV-173R
FGFR3 = FGFR3 (Homo sapiens (Human), UniProt P22607); experiment: NanoSyn single-concentration kinase inhibition; assay type: biochemical; conditions: read-out: % inhibition at 100 nM, FGFR3
PDGFRα = PDGFRα (Homo sapiens (Human), UniProt P16234); experiment: NanoSyn single-concentration kinase inhibition; assay type: biochemical; conditions: read-out: % inhibition at 100 nM, PDGFRα
K562 = experiment: Growth inhibition (GI50) in K562 CML cells; assay type: cell-based; conditions: Homo sapiens, K562, read-out: GI50, K562
FGFR1 = FGFR1 (Homo sapiens (Human), UniProt P11362); experiment: NanoSyn single-concentration kinase inhibition; assay type: biochemical; conditions: read-out: % inhibition at 100 nM, FGFR1
VEGFR3 (FLT4) = VEGFR3 (FLT4) (Homo sapiens (Human), UniProt P35916); experiment: NanoSyn single-concentration kinase inhibition; assay type: biochemical; conditions: read-out: % inhibition at 100 nM, VEGFR3 (FLT4)
Tie2 = Tie2 (Homo sapiens (Human), UniProt Q02763); experiment: NanoSyn single-concentration kinase inhibition; assay type: biochemical; conditions: read-out: % inhibition at 100 nM, Tie2
Csk = Csk (Homo sapiens (Human), UniProt P41240); experiment: NanoSyn single-concentration kinase inhibition; assay type: biochemical; conditions: read-out: % inhibition at 100 nM, Csk
[3] = phase I trial, cited from earlier work
Lck = Lck (Homo sapiens (Human), UniProt P06239); experiment: NanoSyn single-concentration kinase inhibition; assay type: biochemical; conditions: read-out: % inhibition at 100 nM, Lck
BV-173 = experiment: Growth inhibition (GI50) in BV-173 CML cells; assay type: cell-based; conditions: Homo sapiens, BV-173, read-out: GI50, BV-173
EPH-A3 = EPH-A3 (Homo sapiens (Human), UniProt P29320); experiment: NanoSyn single-concentration kinase inhibition; assay type: biochemical; conditions: read-out: % inhibition at 100 nM, EPH-A3
EPH-A3, sequence (P29320 21-983, species assumed): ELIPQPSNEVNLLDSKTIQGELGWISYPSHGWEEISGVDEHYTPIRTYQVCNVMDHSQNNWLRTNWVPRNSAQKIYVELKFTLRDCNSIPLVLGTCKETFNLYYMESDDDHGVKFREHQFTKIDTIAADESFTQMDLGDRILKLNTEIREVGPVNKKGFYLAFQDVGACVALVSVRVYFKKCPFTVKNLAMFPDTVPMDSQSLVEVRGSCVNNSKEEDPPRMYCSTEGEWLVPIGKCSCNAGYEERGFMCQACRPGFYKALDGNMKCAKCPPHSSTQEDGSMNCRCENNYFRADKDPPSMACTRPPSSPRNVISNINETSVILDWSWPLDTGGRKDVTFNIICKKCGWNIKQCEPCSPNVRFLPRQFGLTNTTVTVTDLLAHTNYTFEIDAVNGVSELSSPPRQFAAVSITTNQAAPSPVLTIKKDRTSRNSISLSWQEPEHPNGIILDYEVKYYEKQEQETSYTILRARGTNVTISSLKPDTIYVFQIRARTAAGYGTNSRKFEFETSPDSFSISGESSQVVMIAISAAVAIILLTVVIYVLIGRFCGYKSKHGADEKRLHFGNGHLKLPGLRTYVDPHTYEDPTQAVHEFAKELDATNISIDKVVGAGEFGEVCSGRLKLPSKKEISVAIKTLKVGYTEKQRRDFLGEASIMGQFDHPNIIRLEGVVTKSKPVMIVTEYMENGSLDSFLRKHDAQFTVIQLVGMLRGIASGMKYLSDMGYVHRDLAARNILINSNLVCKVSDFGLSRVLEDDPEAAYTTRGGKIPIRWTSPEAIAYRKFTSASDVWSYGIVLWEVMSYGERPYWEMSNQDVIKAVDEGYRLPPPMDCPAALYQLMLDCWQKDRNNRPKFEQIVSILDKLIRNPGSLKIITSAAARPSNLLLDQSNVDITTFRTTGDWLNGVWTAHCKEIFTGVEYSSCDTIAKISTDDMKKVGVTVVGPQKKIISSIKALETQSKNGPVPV

Abl2/Arg = Abl2/Arg (Homo sapiens (Human), UniProt P42684); experiment: NanoSyn single-concentration kinase inhibition; assay type: biochemical; conditions: read-out: % inhibition at 100 nM, Abl2/Arg
VEGFR1 (FLT1) = VEGFR1 (FLT1) (Homo sapiens (Human), UniProt P17948); experiment: NanoSyn single-concentration kinase inhibition; assay type: biochemical
VEGFR1 (FLT1), sequence (P17948 27-1338, species assumed): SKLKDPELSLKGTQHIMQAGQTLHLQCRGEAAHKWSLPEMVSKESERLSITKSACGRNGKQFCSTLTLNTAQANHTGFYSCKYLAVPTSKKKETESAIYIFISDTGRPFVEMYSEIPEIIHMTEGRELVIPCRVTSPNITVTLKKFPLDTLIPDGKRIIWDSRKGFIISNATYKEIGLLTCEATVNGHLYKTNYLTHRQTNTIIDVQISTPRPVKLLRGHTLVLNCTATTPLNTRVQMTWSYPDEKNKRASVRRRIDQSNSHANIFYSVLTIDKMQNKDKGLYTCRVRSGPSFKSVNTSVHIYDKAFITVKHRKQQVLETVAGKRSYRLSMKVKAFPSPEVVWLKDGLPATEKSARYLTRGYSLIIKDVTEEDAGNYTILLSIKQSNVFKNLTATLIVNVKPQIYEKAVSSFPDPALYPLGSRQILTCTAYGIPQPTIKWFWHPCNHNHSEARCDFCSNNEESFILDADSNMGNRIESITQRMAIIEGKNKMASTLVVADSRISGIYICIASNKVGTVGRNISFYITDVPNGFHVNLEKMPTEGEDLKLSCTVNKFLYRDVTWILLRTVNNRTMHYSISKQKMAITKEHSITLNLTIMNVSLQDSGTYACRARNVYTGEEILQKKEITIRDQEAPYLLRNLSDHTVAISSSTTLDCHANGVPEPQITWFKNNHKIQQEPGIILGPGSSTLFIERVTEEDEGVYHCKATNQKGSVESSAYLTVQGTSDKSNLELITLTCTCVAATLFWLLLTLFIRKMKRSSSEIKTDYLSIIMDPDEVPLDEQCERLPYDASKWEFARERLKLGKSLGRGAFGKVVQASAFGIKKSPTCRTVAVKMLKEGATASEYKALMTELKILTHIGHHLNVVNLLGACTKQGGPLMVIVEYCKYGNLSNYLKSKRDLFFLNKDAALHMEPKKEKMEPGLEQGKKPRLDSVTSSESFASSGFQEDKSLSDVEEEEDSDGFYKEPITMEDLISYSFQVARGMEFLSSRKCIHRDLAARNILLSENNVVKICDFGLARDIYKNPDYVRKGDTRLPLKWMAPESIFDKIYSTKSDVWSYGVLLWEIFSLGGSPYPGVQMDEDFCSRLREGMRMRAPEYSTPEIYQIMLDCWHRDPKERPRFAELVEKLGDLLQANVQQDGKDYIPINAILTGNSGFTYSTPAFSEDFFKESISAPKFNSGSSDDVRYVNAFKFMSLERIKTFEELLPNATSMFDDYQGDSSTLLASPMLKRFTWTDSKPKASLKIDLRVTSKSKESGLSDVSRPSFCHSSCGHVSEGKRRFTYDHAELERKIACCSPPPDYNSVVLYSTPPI

Lyn-A = Lyn-A (Homo sapiens (Human), UniProt P07948); experiment: NanoSyn single-concentration kinase inhibition; assay type: biochemical; conditions: read-out: % inhibition at 100 nM, Lyn-A
C-Raf = C-Raf (Homo sapiens (Human), UniProt P04049); experiment: NanoSyn single-concentration kinase inhibition; assay type: biochemical; conditions: read-out: % inhibition at 100 nM, C-Raf
C-Raf, sequence (P04049 whole entry, species assumed): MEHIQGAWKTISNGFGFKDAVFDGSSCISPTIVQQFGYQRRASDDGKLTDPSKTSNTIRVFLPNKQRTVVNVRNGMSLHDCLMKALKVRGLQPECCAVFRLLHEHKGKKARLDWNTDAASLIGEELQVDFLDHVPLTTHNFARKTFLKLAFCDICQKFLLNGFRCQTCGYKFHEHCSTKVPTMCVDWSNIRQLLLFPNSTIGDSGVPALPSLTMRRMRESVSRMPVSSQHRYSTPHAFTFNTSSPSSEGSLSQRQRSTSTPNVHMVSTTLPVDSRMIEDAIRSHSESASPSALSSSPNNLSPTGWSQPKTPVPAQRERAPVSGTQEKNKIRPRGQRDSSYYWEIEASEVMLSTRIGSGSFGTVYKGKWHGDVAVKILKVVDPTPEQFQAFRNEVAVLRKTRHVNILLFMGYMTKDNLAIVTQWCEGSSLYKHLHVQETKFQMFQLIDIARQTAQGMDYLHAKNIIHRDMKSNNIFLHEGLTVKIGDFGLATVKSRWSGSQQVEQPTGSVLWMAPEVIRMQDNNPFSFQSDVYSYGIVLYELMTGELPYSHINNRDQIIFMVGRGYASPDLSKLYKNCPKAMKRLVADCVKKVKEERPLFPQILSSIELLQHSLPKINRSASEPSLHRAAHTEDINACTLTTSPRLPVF

PDGFRβ = PDGFRβ (Homo sapiens (Human), UniProt P09619); experiment: NanoSyn single-concentration kinase inhibition; assay type: biochemical; conditions: read-out: % inhibition at 100 nM, PDGFRβ
VEGFR2 (KDR) [4] = target: T1, VEGFR2 (KDR); experiment: biochemical; conditions: read-out: % inhibition at 100 nM, VEGFR2 (KDR), 100 nM
[5] = system: chronic myelogenous leukemia; conditions: CML patients; about 30% prior to any targeted therapy; cited from earlier work

MAP4K5, sequence (Q9Y4K4 whole entry, species assumed): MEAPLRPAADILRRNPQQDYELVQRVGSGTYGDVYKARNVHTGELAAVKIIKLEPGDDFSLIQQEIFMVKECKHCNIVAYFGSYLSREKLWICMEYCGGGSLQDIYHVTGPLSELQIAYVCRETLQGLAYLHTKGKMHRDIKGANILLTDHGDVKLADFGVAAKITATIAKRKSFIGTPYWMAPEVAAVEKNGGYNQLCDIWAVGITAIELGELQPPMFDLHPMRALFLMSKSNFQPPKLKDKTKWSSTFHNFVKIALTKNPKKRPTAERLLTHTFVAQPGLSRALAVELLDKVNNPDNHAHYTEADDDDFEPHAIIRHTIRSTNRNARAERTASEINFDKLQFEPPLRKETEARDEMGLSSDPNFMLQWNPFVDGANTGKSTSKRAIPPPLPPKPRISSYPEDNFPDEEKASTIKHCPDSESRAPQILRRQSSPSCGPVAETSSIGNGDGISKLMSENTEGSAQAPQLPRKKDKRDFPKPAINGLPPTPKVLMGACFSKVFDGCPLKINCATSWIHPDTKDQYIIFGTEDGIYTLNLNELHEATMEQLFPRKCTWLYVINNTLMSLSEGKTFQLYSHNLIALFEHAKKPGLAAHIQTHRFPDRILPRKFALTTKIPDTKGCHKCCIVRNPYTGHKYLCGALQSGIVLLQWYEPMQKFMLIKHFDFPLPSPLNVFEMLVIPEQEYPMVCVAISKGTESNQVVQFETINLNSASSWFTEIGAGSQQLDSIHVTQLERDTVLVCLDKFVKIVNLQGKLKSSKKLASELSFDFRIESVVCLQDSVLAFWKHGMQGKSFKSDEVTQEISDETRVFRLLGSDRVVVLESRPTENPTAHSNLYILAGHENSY

CNC(=O)c1cc(Oc2ccc(NC(=O)Nc3ccc(CN4CCN(C)CC4)c(C(F)(F)F)c3)cc2)ccn1 [Compound C01] gave a GI50 [1] of 4.84 µM.
For CN1CCN(Cc2ccc(NC(=O)Nc3ccc(Nc4ccc5ncccc5c4)cc3)cc2C(F)(F)F)CC1 [Compound C04], the GI50 [1] was 5.12 µM.
With Cc1ccc(C(=O)Nc2ccc(CN3CCN(C)CC3)c(C(F)(F)F)c2)cc1C#Cc1cnc2cccnn12 [ponatinib] the inhibition at 0.1 µM (MAP4K5) was 102%, the inhibition at 0.1 µM (FLT3) was 95% and the “% inhibition at 100 nM, VEGFR2 (KDR)” value (VEGFR2 (KDR) [2]) was 102%. It also gave a GI50 (BV-173R) of 0.015 µM, an inhibition at 0.1 µM (FGFR3) of 91% and an inhibition at 0.1 µM (PDGFRα) of 98%. For the same compound, the GI50 (K562) was 0.0025 µM, the inhibition at 0.1 µM (FGFR1) was 102% and the inhibition at 0.1 µM (VEGFR3 (FLT4)) was 100%. For the same compound, the inhibition at 0.1 µM (Tie2) was 95%, the inhibition at 0.1 µM (Csk) was 100% and the “patients with serious vascular AEs” value ([3]; median follow-up of 2.7 years) was 48%. For the same compound, the “patients who developed arterial or venous thrombosis and occlusions” value [3] was “Twenty-seven”, the “patients with heart failure, including fatalities” value [3] was 8% and the inhibition at 0.1 µM (Lck) was 99%. It also gave a GI50 (BV-173) of 0.006 µM, an inhibition at 0.1 µM (EPH-A3) of 101% and an inhibition at 0.1 µM (Abl2/Arg) of 99%. The “% inhibition at 100 nM, VEGFR1 (FLT1)” value (VEGFR1 (FLT1); 100 nM) was 107%, the inhibition at 0.1 µM (VEGFR1 (FLT1); read-out: % inhibition at 100 nM, VEGFR1 (FLT1), 100 nM) was 100% and the inhibition at 0.1 µM (Lyn-A) was 99%. For the same compound, the inhibition at 0.1 µM (C-Raf) was 118%, the inhibition at 0.1 µM (PDGFRβ) was 108% and the inhibition at 0.1 µM (VEGFR2 (KDR) [4]) was 100%.
For Cc1ccc(NC(=O)c2ccc(CN3CCN(C)CC3)cc2)cc1Nc1nccc(-c2cccnc2)n1 [imatinib], the “5-year overall survival rate” value [5] is given as 90%.
CN1CCN(Cc2ccc(NC(=O)Nc3ccc(Oc4ccc5cccnc5c4)cc3)cc2C(F)(F)F)CC1 [Compound C06] gave a GI50 [1] of 5.22 µM.
Compound CN1CCN(Cc2ccc(NC(=O)Nc3ccc(Oc4ccncc4)cc3)cc2C(F)(F)F)CC1 [Compound C02] has a GI50 [1] of 5 µM.
Work on CN1CCN(Cc2ccc(NC(=O)Nc3ccc(Oc4ccc5ncccc5c4)cc3)cc2C(F)(F)F)CC1 [Compound C05] yielded a GI50 [1] of 5.3 µM.
CN1CCN(Cc2ccc(NC(=O)Nc3ccc(Oc4ccc5ncncc5c4)cc3)cc2C(F)(F)F)CC1 [Compound C03] gave a GI50 [1] of 5.58 µM.
